Results reported in US20220411419A1, “SMALL MOLECULE MODULATORS OF MHC-I” (RetroVirox, Inc., priority 2018, published 2022).

Assays:
[1] = system: downmodulation of MHC-I molecules expressed on the surface of HIV infected SupT1 cells; test: cells; conditions: for EC50: Human immunodeficiency virus 1, SUP-T1, read-out: EC50 for inhibition of MHC-I downmodulation utilizing the R1 parameter; for activity at 100 µM: Human immunodeficiency virus 1, SUP-T1, read-out: R1 @ 100 μM (R1 value for MHC-I downmodulation as % of the vehicle control)
in vitro = conditions: human, uninfected SupT1 cells

Structure (SMILES)	EC50 [1] [µM]	CC50 at 48 h (in vitro) [µM]	activity at 100 µM [1] [%]	CC50 (in vitro) [µM]
CC1(C)Cc2cccc(OCC(=O)Nc3nc4c(s3)CCCCC4)c2O1 [Compound 3, 2-((2,2-Dimethyl-2,3-dihydrobenzofuran-7-yl)oxy)-N-(5,6,7,8-tetrahydro-4H-cyclohepta[d]thiazol-2-yl)acetamide]	0.2	> 100	–	–
Cc1nc(NC(=O)COc2cccc3c2OC(C)(C)C3)sc1C [Compound 185, 2-((2,2-Dimethyl-2,3-dihydrobenzofuran-7-yl)oxy)-N-(4,5-dimethylthiazol-2-yl)acetamide]	0.2	> 90	–	–
Cc1ccc(NC(=O)COc2cccc3c2OC(C)(C)C3)cn1 [Compound 11, 2-((2,2-Dimethyl-2,3-dihydrobenzofuran-7-yl)oxy)-N-(6-methylpyridin-3-yl) acetamide]	> 25	> 100	48	> 100
Cc1cccc(OCC(=O)N(C)c2nc3c(s2)CCCC3)c1F [Compound 113, 2-(2-Fluoro-3-methylphenoxy)-N-methyl-N-(4,5,6,7-tetrahydrobenzo[d]thiazol-2-yl)acetamide]	0.55	> 125	–	–
CC1(C)Cc2cccc(OCC(=O)Nc3ccc(Br)nn3)c2O1 [Compound 25, N-(6-Bromopyridazin-3-yl)-2-((2,2-dimethyl-2,3-dihydrobenzofuran-7-yl)oxy)acetamide]	3.6	> 100	–	–
Cc1nc(NC(=O)C(C)(C)Oc2cccc3c2OC(C)(C)C3)sc1C [Compound 19, 2-((2,2-Dimethyl-2,3-dihydrobenzofuran-7-yl)oxy)-N-(4,5-dimethylthiazol-2-yl)-2-methylpropanamide]	> 30	> 90	20	> 90
COC(=O)CN(C(=O)COc1cccc2c1OC(C)(C)C2)c1nc2c(s1)CCCC2 [Compound 99, Methyl 2-(2-((2,2-dimethyl-2,3-dihydrobenzofuran-7-yl)oxy)-N-(4,5,6,7-tetrahydrobenzo[d]thiazol-2-yl)acetamido)acetate]	22	> 125	–	–
Cc1ccc(N(C(=O)COc2cccc3c2OC(C)(C)C3)c2ccc(C)nn2)cc1 [Compound 88, 2-((2,2-Dimethyl-2,3-dihydrobenzofuran-7-yl)oxy)-N-(6-methylpyridazin-3-yl)-N-(p-tolyl)acetamide]	3.25	> 100	–	–
Cc1cccc2sc(NC(=O)COc3cccc4c3OC(C)(C)C4)nc12 [Compound 184, 2-((2,2-Dimethyl-2,3-dihydrobenzofuran-7-yl)oxy)-N-(4-methylbenzo[d]thiazol-2-yl)acetamide]	3.3	> 90	–	–
Cc1csc(N(CCc2ccccc2)C(=O)COc2cccc3c2OC(C)(C)C3)n1 [Compound 50, 2-((2,2-Dimethyl-2,3-dihydrobenzofuran-7-yl)oxy)-N-(4-methylthiazol-2-yl)-N-phenethylacetamide]	14	> 125	–	–
CN(C(=O)COc1cccc2c1OCCO2)c1nc2c(s1)CCCC2 [Compound 126, 2-((2,3-Dihydrobenzo[b][1,4]dioxin-5-yl)oxy)-N-methyl-N-(4,5,6,7-tetrahydrobenzo[d]thiazol-2-yl)acetamide]	0.8	> 125	–	–
CC1(C)Cc2cccc(OCC(=O)Nc3nc(C(=O)NCC4CCNC4)cs3)c2O1 (stereo not shown) [Compound 156, 2-(2-((2,2-dimethyl-2,3-dihydrobenzofuran-7-yl)oxy)acetamido)-N-(pyrrolidin-3-ylmethyl)thiazole-4-carboxamide]	> 25	> 90	40	> 90
CC1(C)Cc2cccc(OCC(=O)Nc3ccc4c(n3)CCC4)c2O1 [Compound 163, N-(6,7-dihydro-5H-cyclopenta[b]pyridin-2-yl)-2-((2,2-dimethyl-2,3-dihydrobenzofuran-7-yl)oxy)acetamide]	0.37	> 125	–	–
CN(C(=O)COc1cccc2[nH]ccc12)c1nc2c(s1)CCCC2 [Compound 111, 2-((1H-Indol-4-yl)oxy)-N-methyl-N-(4,5,6,7-tetrahydrobenzo[d]thiazol-2-yl) acetamide]	0.18	> 125	–	–
C=Cc1ccc(N(C)C(=O)COc2cccc3c2OC(C)(C)C3)nn1 [Compound 82, 2-((2,2-Dimethyl-2,3-dihydrobenzofuran-7-yl)oxy)-N-methyl-N-(6-vinylpyridazin-3-yl)acetamide]	5.9	> 125	–	–
Cc1ccc(CN(C(=O)COc2cccc3c2OC(C)(C)C3)c2ccc(C)cn2)cc1 [Compound 47, 2-((2,2-Dimethyl-2,3-dihydrobenzofuran-7-yl)oxy)-N-(4-methylbenzyl)-N-(5-methylpyridin-2-yl)acetamide]	5.5	> 125	–	–
CC1(C)Cc2cccc(OCC(=O)Nc3nc(C(=O)N4CC[C@H](CO)C4)cs3)c2O1 [Compound 152, (S)-2-((2,2-Dimethyl-2,3-dihydrobenzofuran-7-yl)oxy)-N-(4-(3-(hydroxymethyl)pyrrolidine-1-carbonyl)thiazol-2-yl)acetamide]	> 25	> 90	54	> 90

Structure (SMILES)	EC50 [1] [µM]	CC50 at 48 h (in vitro) [µM]	activity at 100 µM [1] [%]	CC50 (in vitro) [µM]
CC1(C)Cc2cccc(OC(C)(C)C(=O)Nc3nc4ccccc4s3)c2O1 [Compound 20, N-(Benzo[d]thiazol-2-yl)-2-((2,2-dimethyl-2,3-dihydrobenzofuran-7-yl)oxy)-2-methylpropanamide]	> 30	> 90	56	> 90
CC1(C)Cc2cccc(OCC(=O)Nc3nc(C(C)(C)C)cs3)c2O1 [Compound 23, N-(4-(tert-Butyl)thiazol-2-yl)-2-((2,2-dimethyl-2,3-dihydrobenzofuran-7-yl)oxy)acetamide]	4.4	> 100	–	–
CC(C)(C)OC(=O)N1CCC(CNC(=O)c2csc(NC(=O)COc3cccc4c3OC(C)(C)C4)n2)C1 (stereo not shown) [Compound 155, tert-Butyl 3-((2-(2-((2,2-dimethyl-2,3-dihydrobenzofuran-7-yl)oxy)acetamido)thiazole-4-carboxamido)methyl)pyrrolidine-1-carboxylate]	> 25	> 90	≥ 100	> 90
Cc1ncccc1OCC(=O)N(C)c1nc2c(s1)CCCC2 [Compound 137, N-Methyl-2-((2-methylpyridin-3-yl)oxy)-N-(4,5,6,7-tetrahydrobenzo[d]thiazol-2-yl)acetamide]	> 25	12	–	–
O=C(COc1cccc2[nH]ccc12)Nc1nc2c(s1)CCCC2 [Compound 132, 2-((1H-Indol-4-yl)oxy)-N-(4,5,6,7-tetrahydrobenzo[d]thiazol-2-yl)acetamide]	0.081	> 125	–	–
COc1ccccc1OCC(=O)Nc1nc2cc(C)c(C)cc2s1 [Compound 191, N-(5,6-Dimethylbenzo[d]thiazol-2-yl)-2-(2-methoxyphenoxy)acetamide]	> 25	> 100	62	> 100
Cc1csc(N(Cc2ccccc2)C(=O)COc2cccc3c2OC(C)(C)C3)n1 [Compound 159, N-Benzyl-2-((2,2-dimethyl-2,3-dihydrobenzofuran-7-yl)oxy)-N-(4-methylthiazol-2-yl)acetamide]	0.18	> 90	–	–
CC1(C)Cc2cccc(OCC(=O)N(Cc3ccccn3)c3nc4c(s3)CCCC4)c2O1 [Compound 38, 2-((2,2-Dimethyl-2,3-dihydrobenzofuran-7-yl)oxy)-N-(pyridin-2-ylmethyl)-N-(4,5,6,7-tetrahydrobenzo[d]thiazol-2-yl)acetamide]	0.006	0.25	–	–
CC1(C)Cc2cccc(OCC(=O)N(Cc3ccccn3)c3nc4c(F)cccc4s3)c2O1 [Compound 45, 2-((2,2-Dimethyl-2,3-dihydrobenzofuran-7-yl)oxy)-N-(4-fluorobenzo[d]thiazol-2-yl)-N-(pyridin-2-ylmethyl)acetamide]	0.51	> 100	–	–
Cc1csc(N(C(=O)COc2cccc3c2OC(C)(C)C3)c2ccccn2)n1 [Compound 91, 2-((2,2-Dimethyl-2,3-dihydrobenzofuran-7-yl)oxy)-N-(4-methylthiazol-2-yl)-N-(pyridin-2-yl)acetamide]	0.89	> 100	–	–
Cc1csc(N(Cc2ccccc2)C(=O)COc2ccccc2OCc2ccccc2)n1 [Compound 142, N-Benzyl-2-(2-(benzyloxy)phenoxy)-N-(4-methylthiazol-2-yl)acetamide]	5.5	> 125	–	–
CC1(C)Cc2cccc(OCC(=O)Nc3nc(C(=O)N4CCCC4)cs3)c2O1 [Compound 150, 2-((2,2-dimethyl-2,3-dihydrobenzofuran-7-yl)oxy)-N-(4-(pyrrolidine-1-carbonyl)thiazol-2-yl)acetamide]	> 25	> 90	47	> 90
Cc1ccncc1OCC(=O)N(C)c1nc2c(s1)CCCC2 [Compound 138, N-Methyl-2-((4-methylpyridin-3-yl)oxy)-N-(4,5,6,7-tetrahydrobenzo[d]thiazol-2-yl)acetamide]	> 25	> 125	–	–
COc1cccc(F)c1OCC(=O)N(C)c1nc2c(s1)CCCC2 [Compound 124, 2-(2-Fluoro-6-methoxyphenoxy)-N-methyl-N-(4,5,6,7-tetrahydrobenzo[d]thiazol-2-yl)acetamide]	0.26	> 125	–	–
Cc1csc(N(C(=O)COc2cccc3c2OC(C)(C)C3)c2ccccc2Cl)n1 [Compound 61, N-(2-Chlorophenyl)-2-((2,2-dimethyl-2,3-dihydrobenzofuran-7-yl)oxy)-N-(4-methylthiazol-2-yl)acetamide]	2.17	> 100	–	–
COc1cccc(OC)c1OCC(=O)N(C)c1nc2c(s1)CCCC2 [Compound 131, 2-(2,6-Dimethoxyphenoxy)-N-methyl-N-(4,5,6,7-tetrahydrobenzo[d]thiazol-2-yl)acetamide]	2.6	~125	–	–
